System: ATF4 luciferase reporter (human full-length ATF4 5'-UTR fused to firefly luciferase) in HEK293T cells
Experiment: ATF4-Luc assay (in vitro model of VWMD): HEK293T cells carrying ATF4 luciferase reporter, tunicamycin-treated
Format: cell-based
Conditions: Homo sapiens, HEK-293T, 1 μg/mL tunicamycin, 7 hours, One Glo luminescence
How it was run: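 Reporter cells were stably generated by retroviral transduction and puromycin selection, then seeded at 30,000 cells/well. Next day, cells received 1 μg/mL tunicamycin with 200 nM test compound for 7 h, and luciferase luminescence was read with a one-step reagent. Values reported as EC50.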

Row | Compound | EC50
1 | Cc1ncc(C(=O)NC23CC(NC(=O)[C@H]4C[C@@H](O)c5cc(Cl)ccc5O4)(C2)C3)s1 [Compound 385, N-(3-{[(2R,4R)-6-chloro-4-hydroxy-3,4-dihydro-2H-1-benzopyran-2-carbonyl]amino}bicyclo[1.1.1]pentan-1-yl)-2-methyl-1,3-thiazole-5-carboxamide] | 50 to 250 nM
2 | O=C(NC12CC(NC(=O)[C@H]3C[C@@H](O)c4cc(Cl)ccc4O3)(C1)C2)c1ccccn1 [Compound 386, N-(3-{[(2R,4R)-6-chloro-4-hydroxy-3,4-dihydro-2H-1-benzopyran-2-carbonyl]amino}bicyclo[1.1.1]pentan-1-yl)pyridine-2-carboxamide] | 50 to 250 nM
3 | O=C(NC12CC(NC(=O)[C@H]3C[C@@H](O)c4cc(Cl)ccc4O3)(C1)C2)c1cnc(C2CCC2)o1 [Compound 387, N-(3-{[(2R,4R)-6-chloro-4-hydroxy-3,4-dihydro-2H-1-benzopyran-2-carbonyl]amino}bicyclo[1.1.1]pentan-1-yl)-2-cyclobutyl-1,3-oxazole-5-carboxamide] | 50 to 250 nM
4 | O=C(NC12CC(NC(=O)[C@H]3C[C@@H](O)c4cc(Cl)ccc4O3)(C1)C2)c1cnc(C2CN(CC(F)(F)F)C2)o1 [Compound 388, N-(3-{[(2R,4R)-6-chloro-4-hydroxy-3,4-dihydro-2H-1-benzopyran-2-carbonyl]amino}bicyclo[1.1.1]pentan-1-yl)-2-[1-(2,2,2-trifluoroethyl)azetidin-3-yl]-1,3-oxazole-5-carboxamide] | 250 to 500 nM
5 | O=C(NC12CC(NC(=O)[C@H]3C[C@@H](O)c4cc(Cl)ccc4O3)(C1)C2)c1cnc(C2CNC2)o1 [Compound 389, 2-(azetidin-3-yl)-N-(3-{[(2R,4R)-6-chloro-4-hydroxy-3,4-dihydro-2H-1-benzopyran-2-carbonyl]amino}bicyclo[1.1.1]pentan-1-yl)-1,3-oxazole-5-carboxamide] | > 2000 nM
6 | O=C(NC12CC(NC(=O)[C@H]3C[C@@H](O)c4cc(Cl)ccc4O3)(C1)C2)c1cnn(-c2ccccc2)c1 [Compound 390, N-(3-{[(2R,4R)-6-chloro-4-hydroxy-3,4-dihydro-2H-1-benzopyran-2-carbonyl]amino}bicyclo[1.1.1]pentan-1-yl)-1-phenyl-1H-pyrazole-4-carboxamide] | 10 to 50 nM
7 | O=C(NC12CC(NC(=O)[C@H]3C[C@@H](O)c4cc(Cl)ccc4O3)(C1)C2)c1cnn(-c2ccc(Cl)c(F)c2)c1 [Compound 391, 1-(4-chloro-3-fluorophenyl)-N-(3-{[(2R,4R)-6-chloro-4-hydroxy-3,4-dihydro-2H-1-benzopyran-2-carbonyl]amino}bicyclo[1.1.1]pentan-1-yl)-1H-pyrazole-4-carboxamide] | < 10 nM
8 | O=C(NC12CC(NC(=O)[C@H]3C[C@@H](O)c4cc(Cl)ccc4O3)(C1)C2)c1cnn(-c2ccc(C(F)(F)F)nc2)c1 [Compound 392, N-(3-{[(2R,4R)-6-chloro-4-hydroxy-3,4-dihydro-2H-1-benzopyran-2-carbonyl]amino}bicyclo[1.1.1]pentan-1-yl)-1-[6-(trifluoromethyl)pyridin-3-yl]-1H-pyrazole-4-carboxamide] | 500 to 2000 nM
